The values that follow come from paper PMC8111326 (Journal of Molecular Endocrinology, 2021).

Structures can show the parent of a compound that is named as a salt. Where two headings read alike, the source gives them in different places.

Experiment [1] concerns α-MSH-induced [Ca2+]i in HEK293 cells. As to conditions: cited from earlier work.
For a further experiment, the system named is transmitter release. As to conditions: co-administered with calcium chelator BAPTA/AM; ref Di Virgilio et al. 1988; cited from earlier work.

Regarding cholera toxin, the “effect on α-MSH-induced [Ca2+]i” value in experiment [1] is reported as “significantly attenuated”.

Consider `C[C@H](CCC(=O)O)C[C@H](C)C[C@H](C)C(=O)/C=C(\O)[C@H](C)C[C@H](C)C/C=C/[C@@H](C)[C@@H](O)[C@@H](C)[C@@H](O)C[C@@H]1CC[C@@](C)([C@H]2CC[C@@](C)([C@@H](C)O)O2)O1` [ionomycin, ionomycin calcium salt], for which the “ionomycin effect on calcium signal” value in experiment [Ca2+]i in HEK293 cells (presence or absence of probenecid, ionomycin 10 µL of 0.33 mM stock in DMSO) is recorded as “rapid increase in calcium signal”.

With “ethylene glycol-bis (β-aminoethyl ether)-N,N,N′,N′-tetraacetic acid [EGTA]”, the “EGTA chelation of calcium in specific Rmin wells” value in experiment [Ca2+]i in HEK293 cells (EGTA 5.5 mM final, cells co-loaded with Fura-2/AM and 10 µM EGTA in DMEM, probenecid 1 mM in esterase buffer, three independent experiments) was “chelated calcium in the presence of either Ca^2+-free-HG buffer or Ca^2+-free-Ward buffer”. The “effect of EGTA injection on basal calcium signal, optimised assay conditions (with probenecid)” value in experiment [Ca2+]i in HEK293 cells (cell monolayers, EGTA 10 µL of 165 mM stock) is “did not reduce basal calcium signal”. Besides, the “EGTA effect on fluorescence ratio (340/380), specific Rmin wells” value in experiment [Ca2+]i in HEK293 cells (cells depleted of calcium by EGTA prior to imaging, calcium-free buffer) is on record as “rapid small decrease in fluorescence 340/380 ratio”. The “EGTA effect on fluorescence ratio (340/380), with probenecid” value in experiment [Ca2+]i in HEK293 cells (in the presence of probenecid) was “either has no effect on fluorescence ratio or increases the fluorescence ratio”.

Turning to `CCCN(CCC)S(=O)(=O)c1ccc(C(=O)O)cc1` [probenecid], the “interference with EGTA chelation of calcium” value is “interfered with EGTA chelation of calcium” in experiment [Ca2+]i in HEK293 cells (probenecid 1 mM in CLB-HG, Ca2+-free buffer-HG, -Ward or -Ion Optix, Supplementary Fig. 7) and “interferes with EGTA chelation of calcium” in experiment [Ca2+]i in HEK293 cells (probenecid 0.5–2.5 mM, pluronic acid, Supplementary Fig. 5). Also, in the experiment on HEK293 cells (probenecid 1 mM vs 2.5 mM), the “retention of Fura-2 in cells” value is 1 mM probenecid worked as efficiently as 2.5 mM for Fura-2 retention. In addition, the “retention of Fura-2/AM and Fura-2 in cells” value in the experiment on HEK293 cells (probenecid 2.5 mM, three independent experiments) was “retains Fura-2/AM and Fura-2 in HEK293 cell monolayers”. Further, the “effect on transmitter release” value with transmitter release is “profound and prolonged attenuation of transmitter release”.
